In article PMC6655611, “The effect of amantadine on an ion channel protein from Chikungunya virus” (PLoS Neglected Tropical Diseases, 2019):

B1: GST-6K (fusion of Chikungunya virus 6K with Glutathione S Transferase) (natural protein)
chain: ATYYEAAAYLWNEQQPLFWLQALIPLAALIVLCNCLKLLPCCCKTLAFLAVMSIGAHTVSA
notes: Monomer MW printed as 33.5 kDa; The GST tag was not removed; also called CHIKV 6K; recombinant GST-6K; not shown: GST, N-terminal, kept

Experiments:
CHIKV 6K (GST-6K) = target: T1, CHIKV 6K (GST-6K) (Chikungunya virus strain Senegal 37997, UniProt Q5XXP3); test: planar lipid bilayer electrophysiology; also liposome dye release and DLS fusion assay; format: biochemical; settings: 1 uM amantadine; 2.6 ng/ul GST-6K in DPhPC/cholesterol bilayer, 500 mM KCl, 5 mM MgCl2, 10 mM HEPES pH 7.4, 24-25 C, -70 and +70 mV; direct binding not measured
T1 construct: mature 6K cut from structural polyprotein C-E3-E2-6K-E1; N-terminal GST tag kept (pGEX-6P2), E. coli Rosetta pLysS

SEC = target: the molecule itself; test: SEC

| Molecule | planar lipid bilayer electrophysiology; also liposome dye release and DLS fusion (CHIKV 6K (GST-6K)) | stoichiometry N (SEC) |
| --- | --- | --- |
| NC12CC3CC(CC(C3)C1)C2 [amantadine] | This clearly indicates that amantadine abolishes the ion channel activity of CHIKV 6K |  |
| B1 |  | 6 |
